Measurements reported in patent publication US11033603B2, “Method for treating ocular diseases” (priority 2019, dated 2021).
Entries after “also recorded” stand apart in the source; their conditions may differ.

What was measured:
[1] = test system: naturally-occurring diabetic macular edema in rhesus monkeys; experiment: Fundus photography (FP) of NPDR related changes in spontaneous DME rhesus monkeys; assay type: in vivo, Macaca mulatta (Rhesus Macaque)
Excerpt: (§1) Evaluation of Efficacy of beauvericin at different doses for 60 days on improving naturally-occurring diabetic macular edema in rhesus monkeys, providing a basis for clinical trial dose design and safety study.
(§2) Macaca mulatta (Rhesus Macaque) are used in the evaluation.
Secondary Endpoints and Safety Parameters: • (1) Fundus photography (FP). To detect changes of hemorrhage, exudate or vessel lesion before and after treatment; and • (2) Drug effect on metabolism and lipid profiles, liver and kidney function.
Non-human primates (NHPs) are extremely similar to humans in physiological function and structure of eyes. […]
Inclusion Criteria • (1) Female, age 13-18 years (equals to 40-60 years old in human adults), 6-7 kg; • (2) Diabetic duration: over 3 years; • (3) DME of single/both eyes; • (4) DME: the retinal thickness measured by Heidelberg Spectralis OCT in recent half year and diagnosed by FP/FFA with Kowa VX-20 Fundus Camera; • (5) CRT≥260 μm (Central Foveal Thickness) and/or Average Thickness of ETDRS regions≥319 μm. […] Nondiabetic monkey: Average thickness of the retina in nondiabetic animals was 192±11 μm at the fovea, and 307±15 and 328±13 measured at a distance of 1.5 mm from fovea on the temporal and nasal sides, respectively. […]

[2] = Drug observed in the eyes after oral administration (FIG. 3); assay type: in vivo
[3] = test system: VEGF induced angiogenesis; experiment: In vivo Matrigel plug angiogenesis assay; parameters: species or system B57l/6 mice; conditions: mice; for VEGF induced angiogenesis in Matrigel plugs (images, FIG. 1): plugs taken out on Day 7; for Efficacy in inhibition of VEGF induced angiogenesis by hemoglobin level (FIG. 2), compared with Sorafenib: hemoglobin by Drabkin's reagent kit, Day 7
Excerpt: In Vivo Matrigel Plug Angiogenesis Assay
Matrigel plug is made from a gelatinous protein mixture secreted by Engelbreth-Holm-Swarm (EHS) mouse sarcoma cells (produced and marketed by Corning Life Sciences and BD Biosciences). Matrigel resembles the complex extracellular environment found in many tissues and is used by cell biologists as a substrate (basement membrane matrix) for culturing assay.
The test animals were 5 to 8-week-aged B57l/6 mice. The Matrigel was mixed with PBS at a ratio of 4:1 to obtain the Matrigel plug. The mice were administered with the Matrigel plugs containing 30 IU heparin and VEGF 150 ng/ml (500 ul/mouse), and then divided into four groups (4 mice in one group), treated with Beauvericin i.p. or orally (GYT-088 Group), Sorafenib (Sorafenib Group) as a positive control, VEGF alone (Vehicle), and without any treatment (Ctrl). After one day, the animals were administered with the sorafenib i.p. at a dosage of 30 mg/kg or Beauvericin i.p. at a dosage of 2.4 mg/kg (0.1c.c./mice/day), or were orally administered with the Beauvericin at a dosage of 24 mg/kg once per day for six days. On Day 7, the animals were sacrificed and the Matrigel plugs were taken out for observation of angiogenesis. The hemoglobin of each mouse was also measured by Drabkin's reagent kit.

[4] = test system: naturally-occurring diabetic macular edema in rhesus monkeys; experiment: Retinal thickness by OCT in spontaneous DME rhesus monkeys; assay type: in vivo, Macaca mulatta (Rhesus Macaque); conditions: for Macular Central Thickness, left eye / Macular Central Thickness, right eye / Fovea Thickness, left eye / Fovea Thickness, right eye: monkey #2003 (NPDR); for Macular Central Thickness, left eye: baseline 204; for Macular Central Thickness, right eye: baseline 210; for Fovea Thickness, left eye: baseline 257; for Fovea Thickness, right eye: baseline 260
Method: as §1, §2
Retinal Thickness by OCT. To Quantify Retinal Thickness Before and after Treatment.
Retinal thickness is evaluated by 2 methods using OCT: (1) at the fovea and 1.5 mm on either side of it (three point method), and (2) using a 52-point grid to determine the fraction of macula that had thicknesses in different thickness groupings (250-300, 301-350, 351-400 μm, etc.). This method was developed by the Primed team in collaboration with Prof. Dr. Timothy Kern, a renowned diabetic retinopathy expert from Case Western Reserve University. Refer to the ARVO 2018 Poster. Assessment of macular thickening in spontaneously diabetic rhesus monkeys.
Inclusion Criteria • (1) Female, age 13-18 years (equals to 40-60 years old in human adults), 6-7 kg; • (2) Diabetic duration: over 3 years; • (3) DME of single/both eyes; • (4) DME: the retinal thickness measured by Heidelberg Spectralis OCT in recent half year and diagnosed by FP/FFA with Kowa VX-20 Fundus Camera; • (5) CRT≥260 μm (Central Foveal Thickness) and/or Average Thickness of ETDRS regions≥319 μm. (Retinal Thickening is defined by Mean and SD of CRT and ETDRS thickness of normal monkeys). The retinal thickening is defined as thickness that exceeded the normal mean by 2 standard deviations. Nondiabetic monkey: Average thickness of the retina in nondiabetic animals was 192±11 μm at the fovea, and 307±15 and 328±13 measured at a distance of 1.5 mm from fovea on the temporal and nasal sides, respectively. This method was developed by the Primed team in collaboration with Prof. Dr. Timothy Kern, a renowned diabetic retinopathy expert from Case Western Reserve University. Refer to the ARVO 2018 Poster. Assessment of macular thickening in spontaneously diabetic rhesus monkeys; and • (6) with/without vessel leakage or non-perfusion area.
6 spontaneous DME rhesus monkeys (with medical record within one year) will be provided and 4 out of 6 monkeys will be enrolled in the Pre-study period (four weeks) for FA, FP, OCT and slit lamp examination as well as blood biochemistry before treatment. 4 Monkeys will be divided into two groups based on retinal thickness by OCT: • (1) Group 1, vehicle group, N=1; • (2) Group 2, test article group, N=3; (Route of administration: oral administration, once a day; Dosage: TBD).
Retinal thickness includes CST and ETDRS thickness. […]

[5] = monkey #2003, Day 14 versus baseline
[6] = monkey #2003, Day 56 versus baseline

CC(C)[C@H]1OC(=O)[C@H](Cc2ccccc2)N(C)C(=O)[C@@H](C(C)C)OC(=O)[C@H](Cc2ccccc2)N(C)C(=O)[C@@H](C(C)C)OC(=O)[C@H](Cc2ccccc2)N(C)C1=O [GYT-088, beauvericin]
NPDR related changes, FP ([1]; monkey #2003, D28, oral, once a day, baseline: hemorrhages): improved | NPDR changes before and after dosing by FP ([1]; other animals of GYT-088 group (not #2003), any time points): No significant changes | Crossing of blood-brain barrier (BBB) and blood-retinal barrier (BRB) into extravascular space of retina and vitreous body [2]: can be cross the blood-brain barrier (BBB) and particularly the blood-retinal barrier (BRB) | Presence of test drug in the eyes of the animal [2]: observed in the eyes | VEGF induced angiogenesis in Matrigel plugs (images, FIG. 1) ([3]; Beauvericin i.p. 2.4 mg/kg once per day for six days): inhibited | Efficacy in inhibition of VEGF induced angiogenesis by hemoglobin level (FIG. 2), compared with Sorafenib ([3]; listed as Beauvericin): higher efficacy | Efficacy in inhibition of VEGF induced angiogenesis by hemoglobin level (FIG. 2), compared with Sorafenib ([3]; listed as beauvericin): higher efficacy; also recorded: even better than Sorafenib | Macular Central Thickness, left eye ([4]; D14): 197 μm | Macular Central Thickness, right eye ([4]; D14): 202 μm | Fovea Thickness, left eye ([4]; D14): 249 μm | Fovea Thickness, right eye ([4]; D14): 251 μm | Macular Central Thickness, left eye ([4]; D28): 199 μm | Macular Central Thickness, right eye ([4]; D28): 206 μm | Fovea Thickness, left eye ([4]; D28): 253 μm | Fovea Thickness, right eye ([4]; D28): 255 μm | Macular Central Thickness, left eye ([4]; D56 (Double dosing)): 200 μm | Macular Central Thickness, right eye ([4]; D56 (Double dosing)): 202 μm | Fovea Thickness, left eye ([4]; D56 (Double dosing)): 254 μm | Fovea Thickness, right eye ([4]; D56 (Double dosing)): 255 μm | Reduction of central macular thickness (CMT), left eye [4, 5]: 7 μm | Reduction of central macular thickness (CMT), right eye [4, 5]: 8 μm | Reduction of fovea thickness, left eye [4, 5]: 8 μm | Reduction of fovea thickness, right eye [4, 5]: 9 μm | Reduction of central macular thickness, left eye [4, 6]: 6 μm | Reduction of central macular thickness, right eye [4, 6]: 8 μm | Reduction of macular thickness, left eye [4, 6]: 3 μm | Reduction of macular thickness, right eye [4, 6]: 5 μm | Efficacy in Diabetic Macular Edema (conclusion) ([4]; rhesus monkeys, oral, once a day): provided an efficacy in Diabetic Macular Edema

CNC(=O)c1cc(Oc2ccc(NC(=O)Nc3ccc(Cl)c(C(F)(F)F)c3)cc2)ccn1 [Sorafenib, reference compound]
VEGF induced angiogenesis in Matrigel plugs (images, FIG. 1) ([3]; Sorafenib i.p. 30 mg/kg, positive control): inhibited
